Paper PMC11727334, “A self-immolative Kdn-glycoside substrate enables high-throughput screening for inhibitors of Kdnases” (Glycobiology, 2024)

Experiments:
[1] = no reference given; cited from earlier work
AfK = target: T1, AfK (Aspergillus fumigatus, UniProt Q4WQS0); assay: Kdnase activity assay: Michaelis-Menten parameters for AfK-catalyzed hydrolysis of substrates; type: biochemical; details: 100 mM NaOAc pH 4, 0.01% BSA, 21 °C
T1 construct: AfK was expressed and purified as described by Telford et al; made in house
T1 sequence (Q4WQS0 21-406): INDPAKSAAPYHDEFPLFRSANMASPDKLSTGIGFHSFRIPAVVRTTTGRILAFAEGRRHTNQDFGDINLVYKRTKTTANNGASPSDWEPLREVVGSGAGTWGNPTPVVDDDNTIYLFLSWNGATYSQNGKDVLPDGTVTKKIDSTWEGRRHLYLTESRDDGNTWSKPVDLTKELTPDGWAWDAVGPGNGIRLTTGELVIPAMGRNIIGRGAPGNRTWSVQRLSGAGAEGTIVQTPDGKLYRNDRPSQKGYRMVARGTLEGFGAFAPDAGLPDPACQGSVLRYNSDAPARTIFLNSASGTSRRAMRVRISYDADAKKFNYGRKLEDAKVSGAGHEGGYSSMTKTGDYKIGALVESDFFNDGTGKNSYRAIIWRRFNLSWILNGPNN
Excerpt: Next, we measured the Michaelis–Menten parameters for AfK-catalyzed hydrolysis of 4 so as to guide assay optimization for the downstream HTS. Specifically, we added stop solution to the AfK-catalyzed reaction at various times and then, after cyclization we measured the fluorescence, which we converted to product concentration using a standard calibration curve (Figs S3–S5, Supporting Information). As expected, our alkyl Kdn glycoside undergoes enzyme-catalyzed hydrolysis with lower rate constants than those for the activated Kdn glycoside 4MU-Kdn. Specifically, the second-order rate constant (kcat/Km) for the AfK-catalyzed hydrolysis of 4 is (4.0 ± 0.8) × 10^3 M^−1 s^−1, while that for 4MU-Kdn (1) is (1.8 ± 0.1) × 10^5 M^−1 s^−1 ([Yeung et al. 2013]) (Table S1, Supporting Information).
The activity of AfK was determined by measuring cleavage of the synthetic Kdnase substrate Kdn-SICL-4MU 4 (Fig. 1). Substrate 4 was incubated at rt for 10 min followed by the addition purified recombinant enzyme. A stop solution containing 100 mM K2CO3 pH ≈ 12 was added at a series of time points starting from 5, 10, 15, 30, 45, 60, 120, 180 min. […] The substrate concentration used ranged of 2–2,000 μM and the amount of 4-methylumbelliferone (4MU) released from 4 was determined using a fluorescence spectrophotometer (BioTek Neo 2) at excitation and emission wavelengths of 360 and 450 nm, respectively. […]

[2] = Base promoted cyclization of liberated aglycon after carbonate stop solution; type: physicochemical; details: after addition of carbonate stop solution, pH ≈ 10
Method: With Kdn glycoside 4 in hand, we began assay development. […] We reasoned that hydroxyl group activation is required for cyclization. We therefore allowed the enzymatic reaction to proceed for 5 min and then raised the pH of the solution to a pH of ≈ 10 by addition of a solution of K2CO3 (Fig. 1D). We opted for this raised pH value because it would both facilitate cyclization releasing the 4MU reporter and also terminate the enzyme-catalyzed substrate hydrolysis. Using this approach, we observed a significant increase in fluorescence attributable to AfK-catalyzed hydrolysis of substrate 4. […] That is, in the absence of Kdnase, no hydroxycarbamate aglycon 6 is formed. […] Thus, >98% of the fluorescence signal is produced within 15 min following addition of the basic buffer (Fig. S2, supporting information).

SMILES: Cc1cc(=O)oc2cc(O)ccc12 [4MU, 4-methylumbelliferone]
- pKa [1]: 8.4

SMILES: Cc1cc(=O)oc2cc(OC(=O)N(C)CCO[C@]3(C(=O)O)C[C@H](O)[C@@H](O)[C@H]([C@H](O)[C@H](O)CO)O3)ccc12 [compound 4, N-methyl-(N-4′-methylumbelliferylcarbonyl)-2-aminoethyl 3-deoxy-D-glycero-α-D-galacto-non-2-ulopyranosidonic acid]
- Km (AfK): 950 µM
- kcat (AfK): 3.7 ± 0.2 s–1

SMILES: Cc1cc(=O)oc2cc(OC(=O)N(C)CCO)ccc12 [compound 6]
- half-life (t1/2) of first-order cyclization [2]: approximately 2.5 min
